Data published in patent US4578400A, “Therapeutic composition and method for treatment of cardiovascular diseases” (priority 1982, dated 1986).

Legend:
[1] = system: chloroform-induced arrhythmia (ventricular fibrillation); test: Effect on chloroform-induced arrhythmia; type: in vivo, male ddy mice; conditions: for Percent occurrence of ventricular fibrillation: 15 min before chloroform, control 100
Excerpt: When they stopped breathing, they were thoracotomized to examine the occurrence of ventricular fribrillation. The results are noted in Table 2 as percent occurrence of ventricular fibrillation.

[2] = system: ouabain induced arrhythmia; test: Effect on ouabain induced arrhythmia; type: in vivo, male hartley guinea pigs; conditions: for relative time for extrasystole to occur / relative time for cardiac arrest to occur / relative time for ventricular fibrillation to occur: control = 100
Excerpt: Effect on ouabain induced arrhythmia
The procedure described in Matsubara et al. (Folia Pharmacologica Japonica, 72, 557-571, 1976) was followed.
Male hartley guinea pigs were divided into groups of 8 animals and anesthetized with intraperitoneal urethane. Three groups were orally administered 5--HDA--Na, 5--HDAE and 5--HDA--DHP dissolved in distilled water. Another group was intravenously injected with 5--HDA--Na dissolved in physiological saline. One group was orally administered δ-DL emulsified in 5% aqueous arabic gum solution. One group was injected intravenously with lidocaine dissolved in physiological saline. For the respective routes of administration, control groups were administered the solvents used in administration of the test compounds. Thirty minutes after the oral administration and one minute after the intravenous injection, ouabain was infused into the jugular vein at a rate of 5 μg/kg/min until extrasystole, ventricular fibrillation and cardiac arrest appeared on a standard limb lead II of ECG. The results are shown in Table 3, with the time necessary for the respective symptoms to occur in the control groups taken as 100.

[3] = Solubility (physicochemical properties, Table 1)

CCCCCC(O)CCCC(=O)[O-].[Na+] (centres unmarked)
Percent occurrence of ventricular fibrillation ([1]; 50 mg/kg, oral): 50
anti-arrhythmic potency compared with lidocaine (in words) ([1]; 100 mg/kg oral vs lidocaine 10 mg/kg i.p.): more potent than lidocaine
anti-arrhythmic effects (in words) ([1]; 100 mg/kg, oral): significant anti-arrhythmic effects
Percent occurrence of ventricular fibrillation ([1]; 100 mg/kg, oral, *P < 0.05): 30
relative time for extrasystole to occur ([2]; i.v., 20 mg/kg): 146
relative time for cardiac arrest to occur ([2]; i.v., 20 mg/kg, *P < 0.05): 132
relative time for ventricular fibrillation to occur ([2]; i.v., 20 mg/kg, *P < 0.05): 140
relative time for extrasystole to occur ([2]; oral, 50 mg/kg): 118
relative time for cardiac arrest to occur ([2]; oral, 50 mg/kg, *P < 0.05): 134
relative time for ventricular fibrillation to occur ([2]; oral, 50 mg/kg, *P < 0.05): 126
relative time for extrasystole to occur ([2]; oral, 100 mg/kg): 160
relative time for ventricular fibrillation to occur ([2]; oral, 100 mg/kg, *P < 0.05): 144
relative time for cardiac arrest to occur ([2]; oral, 100 mg/kg, *P < 0.05 where starred): 136
antiarrhythmic effects (in words) ([2]; ouabain induced arrhythmia): significant antiarrhythmic effects
solubility in acetone ([3]; acetone): easily soluble
solubility in benzene ([3]; benzene): sparingly
solubility in chloroform ([3]; chloroform): sparingly
solubility in hexane ([3]; hexane): sparingly
solubility in methanol ([3]; methanol): easily soluble
solubility in water ([3]; water): easily soluble
